Measurements: patent US20260144890A1, “ANTIBODY DRUG CONJUGATE COMPRISING NMT INHIBITOR CONJUGATED TO AN ANTIBODY” (MyricX Pharma Limited, priority 2024, published 2026)
Like-named read-outs stand apart in the source and are kept apart here.

Tests used:
[1] = test system: SU-DHL-10 cell line; experiment: Cell cytotoxicity in SU-DHL-10 cell line (CTG, 72 h); assay type: cell-based; conditions: Homo sapiens, SU-DHL10, 72 h, 72 h treatment
Method: Certain NMT inhibitors were tested in the SU-DHL-10 cell line (human B cell lymphoma). Compounds which show efficacy in this assay are expected to be useful as agents for treating or preventing hyperproliferative disorders such as cancer.
Cells were seeded in 96-well microplates and treated with compounds or cisplatin (as a positive control) at 9 increasing concentrations in technical triplicate. […] On day 1, 90 μL of various cell suspensions with the number of cells ranging from 5000-8000 cells/well were seeded into wells of a 96-well plate (Corning). The number of cells to be seeded was previously determined. • 2. All 96-wells plates with cells were placed in an incubator overnight at 37° C. with 5% CO2. • 3. On day 2, cells were observed under a microscope ensuring the cells treated with vehicle control were in good condition. • 4. A dilution series of the test compounds and cisplatin were prepared at 10× the final concentrations required. 10 μL/well of 10× compound solution was added to the corresponding plates. The final volume was 100 μL/well for all the plates. […]
Luminescence was recorded using an EnVision Multi Label Reader. […]
(LumTest article=luminescence in test article treated well; LumNone treated=luminescence in vehicle treated well; LumMedium control=luminescence in a well containing only medium and no cells; LumNone treated−LumMedium control was set as 100%).

[2] = test system: BT474 breast cancer cells; experiment: Orthotopic breast cancer xenograft model (BT474); assay type: in vivo, mouse
Method: During the study, body weights were measured three times weekly for all animals. Animals were given Diet Gel for the entire duration on the study.

[3] = test system: gastric cancer organoid GA0091B; experiment: Gastric cancer organoid viability (CTG 3D), GA0091B; assay type: cell-based; design: AUC (area under curve): unit not given beside the values
Method: (§1) Day −1: Patient derived gastric cancer organoids (PDXOs) are sheared to uniform sizes and the required number of organoids are combined 1:1 with 50% Matrigel to produce the right size of the organoids to perform the screen.
(§2) Day 0: Organoid seeding • 1. Collect organoids from each well by adding 20 μl 100× Dispase solution to each well from a 6-well plate, which contains 2 ml of organoid medium. • 2. Put the plates back in the incubator, 37° C. for 30 min. • 3. Collect organoids from all wells and pipet through a pre-wet 100 μm filter into a 50 ml plastic tube. • 4. Once all wells have been filtered over 100 μm filters, filter the flow though over a pre-wet 20 μm filter. • 5. […]
(§3) • 10. Place screening plates back into the incubator before adding compounds and day 0 reading. […] One is for day 0 reading (TO) and the other for reading at the end point.
(§4) Day 0: Compounds treatment and Day 0 baseline CTG (cell titre glo) reading • 11. […] For day 0 reading plate, add 40 μL of CTG 3D per well and read luminescent signal on Envision plate reader.
(§5) Day 6: Endpoint CTG reading. • 1. Read assay plates for luminescent CTG signal at the end of the assays: add 40 μL of CTG 3D per well by Multidrop dispenser, mix the contents for 5 min on the plate shaker, and incubate the plates for 30 min at room temperature in dark. Read luminescent signal on Envision plate reader. […]

[4] = test system: gastric cancer organoid GA2434B; experiment: Gastric cancer organoid viability (CTG 3D), GA2434B; assay type: cell-based; design: unit not given beside the values
Method: as §1, §2, §3, §4, §5

[5] = test system: gastric cancer organoid GA0087B; experiment: Gastric cancer organoid viability (CTG 3D), GA0087B; assay type: cell-based; design: AUC (area under curve): unit not given beside the values
Method: as §1, §2, §3, §4, §5

[6] = test system: gastric cancer organoid GA2109B; experiment: Gastric cancer organoid viability (CTG 3D), GA2109B; assay type: cell-based; design: unit not given beside the values
Method: as §1, §2, §3, §4, §5

[7] = test system: gastric cancer organoid GA0060B; experiment: Gastric cancer organoid viability (CTG 3D), GA0060B; assay type: cell-based; design: unit not given beside the values
Method: as §1, §2, §3, §4, §5

[8] = test system: gastric cancer organoid GA3055B; experiment: Gastric cancer organoid viability (CTG 3D), GA3055B; assay type: cell-based; design: unit not given beside the values
Method: as §1, §2, §3, §4, §5

[9] = test system: gastric cancer organoid GA6866B; experiment: Gastric cancer organoid viability (CTG 3D), GA6866B; assay type: cell-based; design: unit not given beside the values
Method: as §1, §2, §3, §4, §5

[10] = test system: gastric cancer organoid GA6894B; experiment: Gastric cancer organoid viability (CTG 3D), GA6894B; assay type: cell-based; design: AUC (area under curve): unit not given beside the values
Method: as §1, §2, §3, §4, §5

[11] = test system: gastric cancer organoid GA6833B; experiment: Gastric cancer organoid viability (CTG 3D), GA6833B; assay type: cell-based; design: unit not given beside the values
Method: as §1, §2, §3, §4, §5

[12] = test system: gastric cancer organoid GA6815B; experiment: Gastric cancer organoid viability (CTG 3D), GA6815B; assay type: cell-based; design: AUC (area under curve): unit not given beside the values
Method: as §1, §2, §3, §4, §5

[13] = test system: gastric cancer organoid GA0119B; experiment: Gastric cancer organoid viability (CTG 3D), GA0119B; assay type: cell-based; design: AUC (area under curve): unit not given beside the values
Method: as §1, §2, §3, §4, §5

[14] = test system: gastric cancer organoid GA6877B; experiment: Gastric cancer organoid viability (CTG 3D), GA6877B; assay type: cell-based; design: unit not given beside the values
Method: as §1, §2, §3, §4, §5

[15] = test system: gastric cancer organoid GA0098B; experiment: Gastric cancer organoid viability (CTG 3D), GA0098B; assay type: cell-based; design: AUC (area under curve): unit not given beside the values
Method: as §1, §2, §3, §4, §5

[16] = test system: gastric cancer organoid GA0429B; experiment: Gastric cancer organoid viability (CTG 3D), GA0429B; assay type: cell-based; design: unit not given beside the values
Method: as §1, §2, §3, §4, §5

[17] = test system: gastric cancer organoid GA3102B; experiment: Gastric cancer organoid viability (CTG 3D), GA3102B; assay type: cell-based; design: unit not given beside the values
Method: as §1, §2, §3, §4, §5

[18] = test system: gastric cancer organoid GA6891B; experiment: Gastric cancer organoid viability (CTG 3D), GA6891B; assay type: cell-based; design: AUC (area under curve): unit not given beside the values
Method: as §1, §2, §3, §4, §5

[19] = test system: VCaP human prostate cancer xenograft; experiment: VCaP prostate cancer xenograft model; assay type: in vivo, mouse
Method: In this study, 144 mice were inoculated subcutaneously in the right front flank region with 1×10^7 viable VCaP tumour cells resuspended in 0.1 mL of PBS mixed with Matrigel (1:1) for tumour development on Study Day −20. 80 mice were assigned to 8 treatment groups when tumour volumes averaged ˜162.16 mm^3 on Study Day 0. Dosing commenced the following day and all animals were dosed intravenously with ADC Example 4, ifinatamab-deruxtecan (ifinatamab-Dxd) or unconjugated ifinatamab. All mice received two doses of test agent, on Study Day 1 and Study Day 8. The study was terminated on Study Day 30. • The 8 groups were assigned as follows: […]

[20] = test system: LNCaP tumours; experiment: LNCaP prostate cancer xenograft model; conditions: for Day 28 tumour volume (mean ± SEM) / Tumour growth inhibition (TGI, %): IV, Q7D (x3); for Tumour growth inhibition (TGI, %): day 28
Method: A total of 84 male NOD SCID mice aged 5-8 weeks and weighing 25-30 g were used for the study.
• Duration of observation: 35 days. • Dosing volume: 5 mL/kg for all IV doses

[21] = test system: JIMT-1 human breast xenograft; assay type: in vivo
Description: The study was terminated on the Study Day 60.

[22] = test system: JIMT-1 human breast xenograft; experiment: JIMT1 breast cancer xenograft model (Balb/c nude mice, ADC Example 1); assay type: in vivo, mouse
Method: In this study, 72 mice were inoculated subcutaneously in the right front flank region with 1×10^7 viable JIMT-1 tumour cells resuspended in Matrigel (1:1) on Study Day −15. When tumours reached a tumour volume of approximately 120-150 mm^3, 60 mice with the most similarly sized tumours were randomly assigned to 6 treatment groups on Study Day 0. […] The study was terminated on Study Day 58. The dosing regimen was as follows:
The body weight of all mice in each group was measured and recorded three times weekly throughout the duration of the study. Moreover, the tumour volume was measured (mm^3) and recorded using digital calipers three times weekly throughout the duration of the study. In particular, the length, width, and depth of the tumour were each measured and used to calculate tumour volume (mm^3). The results are shown in FIG. 58, FIG. 59, and FIG. 60.

## CNCc1cnc2ccc(-c3ccc(F)c(F)c3OCCc3c(C(O)C(C)(C)C)nn(C)c3C)cn12 (single isomer, unassigned) [compound 13, 1-(4-(2-(2,3-difluoro-6-(3-((methylamino)methyl)imidazo[1,2-a]pyridin-6-yl)phenoxy)ethyl)-1,5-dimethyl-1H-pyrazol-3-yl)-2,2-dimethylpropan-1-ol]
[1]
  IC50: 0.7 nM

## CNCc1cnc2ccc(-c3ccc(F)c(F)c3OCCc3c(C(O)C(C)(C)C)nn(C)c3C)cn12 (stereo not shown) [NMT inhibitor 1, 1-(4-(2-(2,3-difluoro-6-(3-((methylamino)methyl)imidazo[1,2-a]pyridin-6-yl)phenoxy)ethyl)-1,5-dimethyl-1H-pyrazol-3-yl)-2,2-dimethylpropan-1-ol]
[2]; 2.0 mg/kg, 2 days dosing then 5 day holiday, stopped at day 13
  tumour size: reduced tumour size
[2]; trastuzumab and ADC 2.5 and 5 mg/kg, NMT inhibitor 1 2 mg/kg
  body weights of mice: decreased significantly

## CN[C@@H]1C[C@H]2O[C@@](C)([C@@H]1OC)n1c3ccccc3c3c4c(c5c6ccccc6n2c5c31)C(=O)NC4 [Staurosporine]
[3]
  AUC (area under curve): 199.9
  IC50: 22.2 nM
[4]
  AUC (area under curve): 226.6809
[5]
  AUC (area under curve): 113.2
  IC50: 2.9 nM
[6]
  AUC (area under curve): 233.3136
[7]
  AUC (area under curve): 85.1
[8]
  AUC (area under curve): 144.7132
[9]
  AUC (area under curve): 201.1356
[10]
  AUC (area under curve): 230.6577
  IC50: 8.5 nM
[11]
  AUC (area under curve): 158.1701
[12]
  AUC (area under curve): 194.3428
  IC50: 15.8 nM
[13]
  AUC (area under curve): 212.2837
  IC50: 8.9 nM
[14]
  AUC (area under curve): 175.472
[15]
  AUC (area under curve): 239.6
  IC50: 22.1 nM
[16]
  AUC (area under curve): 170.8729
[17]
  AUC (area under curve): 200.7667
[18]
  AUC (area under curve): 174.0868
  IC50: 9 nM

## ifinatamab
[19]; 2.5 mg/kg
  tumour volume compared to vehicle alone: no significant difference
[19]; 2.5 mg/kg QW x 2 weeks IV
  ΔTGI (Study Day 17): 8.47%
[19]; 5 mg/kg
  tumour volume compared to vehicle alone: no significant difference
[19]; 5 mg/kg QW x 2 weeks IV
  ΔTGI (Study Day 17): 12.44%
[20]; 5 mg/kg
  LNCaP tumour volume compared to vehicle: no significant effect
  Day 28 tumour volume (mean ± SEM): 551.4 ± 73.1 mm^3
  Tumour growth inhibition (TGI, %): 30.6%
[20]; 10 mg/kg
  LNCaP tumour volume compared to vehicle: no significant effect
  Day 28 tumour volume (mean ± SEM): 666.56 ± 103.2 mm^3
  Tumour growth inhibition (TGI, %): 13.0%

## sacituzumab
[21]; 2.5 mg/kg
  tumour volume compared to vehicle alone: no significant difference
[21]; 2.5 mg/kg QW x 2 weeks IV
  ΔTGI (Study Day 28): 12.11%
[21]; 5 mg/kg
  tumour volume compared to vehicle alone: significant decrease
[21]; 5 mg/kg QW x 2 weeks IV
  ΔTGI (Study Day 28): 14.44%

## sacituzumab govitecan
[21]; 2.5 mg/kg
  tumour volume compared to vehicle alone: significant decrease
[21]; 2.5 mg/kg QW x 2 weeks IV
  ΔTGI (Study Day 28): 13.13%
[21]; 5 mg/kg
  tumour volume compared to vehicle alone: significant decrease
[21]; 5 mg/kg QW x 2 weeks IV
  ΔTGI (Study Day 28): 23.39%
[21]; Group 4, 5 mg/kg
  efficacy of treatment: only partially efficacious

## trastuzumab emtansine
[22]; 5 mg/kg IV on Study Days 0, 7, 28 and 35, agent alone
  tumour volume compared to vehicle alone: no decrease in tumour volume
[22]; 5 mg/kg IV, agent alone
  mice that completely responded (of 10): no mice
  mice that partially responded (of 10): no mice

B1: ifinatamab-DXd (conjugate, chains of the INN, looked up)
VH: QVQLVQSGAEVKKPGSSVKVSCKASGYTFTNYVMHWVRQAPGQGLEWMGYINPYNDDVKYNEKFKGRVTITADESTSTAYMELSSLRSEDTAVYYCARWGYYGSPLYYFDYWGQGTLVTVSS
VL: EIVLTQSPATLSLSPGERATLSCRASSRLIYMHWYQQKPGQAPRPLIYATSNLASGIPARFSGSGSGTDFTLTISSLEPEDFAVYYCQQWNSNPPTFGQGTKVEIK
modifications: deruxtecan (DXd) payload
[19]; 2.5 mg/kg
  tumour volume compared to vehicle alone: no significant difference
[19]; 2.5 mg/kg QW x 2 weeks IV
  ΔTGI (Study Day 17): 5.24%
[19]; 5 mg/kg
  tumour volume compared to vehicle alone: significantly higher tumour volume
[19]; 5 mg/kg QW x 2 weeks IV
  ΔTGI (Study Day 17): 2.86%
[20]; 5 mg/kg
  LNCaP tumour volume compared to vehicle: slowed the growth of LNCaP tumours to a lesser extent
  Day 28 tumour volume (mean ± SEM): 364.6 ± 51.7 mm^3
  Tumour growth inhibition (TGI, %): 58.8%
[20]; 10 mg/kg
  LNCaP tumour volume compared to vehicle: significantly reduced the mean volume of LNCaP tumours
  Day 28 tumour volume (mean ± SEM): 259.5 ± 50.3 mm^3
  Tumour growth inhibition (TGI, %): 75.0%
